Assay results reported in article PMC12006171, “Marsupial cathelicidins: characterization, antimicrobial activity and evolution in this unique mammalian lineage” (Frontiers in Immunology, 2025).
Values after ≈ are worked out from the molar mass of the structure shown. Where two headings read alike, the source gives them in different places. Where a SMILES comes first, the peptide text is derived from it.

Legend:
[1] = system: three fungi (Candida krusei, Candida parapsilosis, Candida albicans); assay: Antifungal screening, summary over the panel of fungi (broth microdilution); format: cell-based; conditions: synthesized mature peptide; antimicrobial screening Phase I; Y/N summary over fungi tested, broth microdilution
Description: Antimicrobial testing of 78 cathelicidin MPs was performed in two phases as outlined in Figure 1 . In phase I, 40 peptides (27 extant and 13 ancestral) were selected for testing based on rank (outlined above) and similarity to published marsupial cathelicidins with known antimicrobial activity ([33], [41]–[43]). These peptides were tested against nine bacteria (Staphylococcus aureus ATCC 29213 and clinical isolate, Escherichia coli ATCC 25922 and clinical isolate, Pseudomonas aeruginosa ATCC 27853 and clinical isolate, Streptococcus agalactiae ATCC 12386 and clinical isolate, Streptococcus pneumoniae ATCC 49619) and three fungi (Candida krusei ATCC 6258, Candida parapsilosis ATCC 22019, and Candida albicans clinical isolate). Details regarding these strains are available in Supplementary Table 4 . The antimicrobial activity of cathelicidins was determined as the minimum inhibitory concentration (MIC), which was the lowest concentration of cathelicidin that prevented visible bacterial or fungal growth, relative to the negative control. […] Minimum bactericidal concentration (MBC) and/or minimum fungicidal concentration (MFC) was conducted to determine microbicidal versus static action. Activity against S. aureus ATCC, E. coli ATCC, and Pseudomonas aeruginosa ATCC 27853 was examined in the presence of divalent cations to determine the impact of inhibitors.
Antimicrobial activity was determined using a broth microdilution susceptibility assay in 96 well polypropylene plates according to Clinical Laboratory Standards Institute guidelines M07-A and M26A as described previously ([33], [42], [43]). The bacterial and fungal isolates from humans and animals used in this study are outlined in Supplementary Table 4 . Only yeasts were included in the panel of fungi as they have been used in the susceptibility testing of eutherian ([3], [81]–[83]) and other marsupial cathelicidins previously ([33], [42], [43]). Cathelicidin mature peptides were solubilized in DMSO and serially diluted in duplicate from 128-0.25μg/mL in a final volume of 100µL. For bacteria, cathelicidins were diluted in Mueller Hinton Broth (MHB) with or without 10% lysed horse blood, and with (MH II B) or without (MHB) calcium and magnesium cations. For fungi, cathelicidins were diluted in Roswell Park Memorial Institute medium (RPMI)-1640 MOPS. Ampicillin or tetracycline were included as a positive control for Gram-positive and -negative bacteria respectively, while amphotericin B was used for fungi. A media-only negative control and growth control (no cathelicidin) were also included on each plate. Bacteria were sub-cultured on Muller Hinton agar (MHA) or sheep blood agar (BA), and fungi on Sabouraud dextrose agar (SAB), 20–24 hours prior to the test. Colonies were suspended in saline, the concentration adjusted to a 0.5 McFarland standard, and then diluted in media to a concentration of 1.0 x 10^6 cells/mL. Then, 100μL was added to each well of the cathelicidin dilution plate, giving a final inoculum density of 5 x 10^5 CFU/mL and cathelicidin concentration of 64-0.125μg/mL. Colony counts were performed on MHA/BA/SAB to confirm inoculum density. All plates were incubated at 35°C for 20–24 hours, depending on the strain.
Colonies were counted and compared to the colony count of the starting inoculum.

[2] = system: Streptococcus agalactiae Clinical isolate - animal; assay: microbe, parasite or virus in culture; format: cell-based; conditions: clinical isolate - animal; read-out: MIC S. agalactiae
How it was run: (§1)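 Broth microdilution per CLSI M07-A/M26A; cathelicidin peptides tested at final 64-0.125μg/mL, inoculum 5 x 10^5 CFU/mL, 35°C for 20–24 hours. Bacteria in MHB (±10% lysed horse blood, ±Ca/Mg), yeasts in RPMI-1640 MOPS. MIC = lowest concentration preventing visible growth.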

[3] = system: Streptococcus agalactiae ATCC 12386; assay: microbe, parasite or virus in culture; format: cell-based; conditions: ATCC 12386; read-out: MIC S. agalactiae ATCC
How it was run: as §1

[4] = system: Streptococcus pneumoniae ATCC 49619; assay: microbe, parasite or virus in culture; format: cell-based; conditions: ATCC 49619; read-out: MIC S. pneumoniae ATCC
How it was run: as §1

[5] = system: S. aureus ATCC 29213; assay: Killing kinetics (time kill assay); format: cell-based, Staphylococcus aureus; conditions: MHB, 35°C, sampled 1-24 hours, n = 2
Description: The killing kinetics assay was conducted using mid-logarithmic phase cultures of E. coli ATCC 25922 and S. aureus ATCC 29213 in MHB. Cultures were adjusted to a 0.5 McFarland standard, diluted in MHB, and then 100µL was added to each culture tube containing 10mL pre-warmed MHB to give a final inoculum concentration of 5 x 10^5 CFU/mL. A sterility control of 100uL MHB, growth control (no cathelicidin), and vehicle control (DMSO) were also included. Furthermore, 10uL was immediately removed from the growth control tube, diluted 1/1000 in saline and 100µL plated onto MHA in duplicate to confirm inoculum density. To establish colony counts from 0 hours of cathelicidin treatment, 200µL was removed from each culture tube and serially diluted ten-fold in saline from 10^0 to […] in a total volume of 200µL. Then, 10µL of each dilution was spotted onto MHA in duplicate, which were incubated at 35°C for 24 hours.
All culture tubes were then incubated at 35°C static. At 1, 2, 4, 6, 8, 10, 12, and 24 hours post-cathelicidin treatment, 200µL was removed from each culture tube for dilution and plated on MHA as described above. […] Counts of duplicates were averaged, and the log10 CFU/mL graphed against time. This was used as input for one-way ANOVA (p < 0.05) followed by Dunnett’s post hoc test.

[6] = system: Pseudomonas aeruginosa clinical isolate - animal; assay: microbe, parasite or virus in culture; format: cell-based; conditions: clinical isolate - animal; read-out: MIC P. aeruginosa
How it was run: (§2)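 Broth microdilution following CLSI M07-A/M26A, using peptides at 64–0.125 μg/mL final in MHB, with or without 10% lysed horse blood and with or without Ca/Mg cations (MH II B). Inoculum 5 x 10^5 CFU/mL, incubated 20–24 h at 35 °C; MIC is lowest concentration preventing visible growth, MBC by colony counts versus starting inoculum.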

[7] = system: Escherichia coli clinical isolate - animal; assay: microbe, parasite or virus in culture; format: cell-based
How it was run: as §2

[8] = system: Staphylococcus aureus clinical isolate - animal; assay: microbe, parasite or virus in culture; format: cell-based
How it was run: as §2

[9] = system: Staphylococcus aureus ATCC 29213; assay: microbe, parasite or virus in culture; format: cell-based
How it was run: as §2

[10] = system: Escherichia coli ATCC 25922; assay: microbe, parasite or virus in culture; format: cell-based
How it was run: as §2

[11] = system: Pseudomonas aeruginosa ATCC 27853; assay: microbe, parasite or virus in culture; format: cell-based; conditions: ATCC 27853; read-out: MIC P. aeruginosa ATCC
How it was run: as §2

[12] = system: Staphylococcus aureus clinical isolate – animal, methicillin-resistant (MRSA); format: cell-based; conditions: clinical isolate – animal, methicillin-resistant
How it was run: as §1

[13] = system: Staphylococcus aureus clinical isolate – animal, penicillin-resistant (PRSA); format: cell-based; conditions: clinical isolate – animal, penicillin-resistant (PRSA)
How it was run: as §1

[14] = system: six bacteria (S. aureus, E. coli, P. aeruginosa; ATCC and clinical isolate); format: cell-based; conditions: synthesized mature peptide; antimicrobial screening Phase I; Y/N summary over bacteria tested, broth microdilution
How it was run: as §2

[15] = clinical isolate, MHB without cations, 5 x 10^5 CFU/mL, 35°C 20–24 hours, duplicate
[16] = clinical isolate, superscript value, cation-adjusted Mueller Hinton broth
[17] = clinical isolate, value in brackets, 99.9% reduction in CFU/mL

Antifungal (MIC <64ug/mL) [1]: N (Antifungal (MIC <64ug/mL))
MIC [2]: >18.6 µM
MIC [3]: >18.6 µM
MIC [4]: >18.6 µM
MIC [6]: >18.6 µM
MIC ([7]; clinical isolate - animal): 9.3 µM (≈ 31.9 µg/mL)
MIC in the presence of cations E. coli ([7]; clinical isolate - animal): 18.6 µM
MIC E. coli [7, 15]: 32 µg/mL (≈ 9.33 µM)
MIC in the presence of cations E. coli [7, 16]: 64 µg/mL
MIC ([8]; clinical isolate - animal, read-out: MIC S. aureus): 9.3 µM (≈ 31.9 µg/mL)
MIC ([8]; clinical isolate - animal, read-out: MIC in the presence of cations S. aureus): 4.6 µM
MIC S. aureus [8, 15]: 32 µg/mL (≈ 9.33 µM)
MIC in the presence of cations S. aureus [8, 16]: 16 µg/mL
MIC S. aureus ATCC ([9]; ATCC 29213): 16 µg/mL (≈ 4.66 µM)
MIC in the presence of cations S. aureus ATCC ([9]; superscript value, cation-adjusted Mueller Hinton broth (calcium and magnesium)): 32 µg/mL
MIC ([10]; ATCC 25922, read-out: MIC E. coli ATCC): 9.3 µM (≈ 31.9 µg/mL)
MIC ([10]; ATCC 25922, read-out: MIC in the presence of cations E. coli ATCC): 9.3 µM
MIC E. coli ATCC ([10]; MHB without cations, 5 x 10^5 CFU/mL, 35°C 20–24 hours, duplicate): 32 µg/mL (≈ 9.33 µM)
MIC in the presence of cations E. coli ATCC ([10]; superscript value, cation-adjusted Mueller Hinton broth): 32 µg/mL
MIC [11]: >18.6 µM
MIC MRSA [12]: 9.3 µM (≈ 31.9 µg/mL)
MIC PRSA [13]: 4.6 µM (≈ 15.8 µg/mL)
Antibacterial (MIC <64ug/mL) [14]: Y (Antibacterial (MIC <64ug/mL))
SMILES: CC[C@H](C)[C@H](NC(=O)[C@H](CCCCN)NC(=O)CNC(=O)[C@H](CC(C)C)NC(=O)CNC(=O)[C@H](CCC(N)=O)NC(=O)CNC(=O)[C@H](CC(C)C)NC(=O)[C@@H]1CCCN1C(=O)[C@H](CCCCN)NC(=O)[C@H](CCSC)NC(=O)[C@H](CC(C)C)NC(=O)[C@H](CCCCN)NC(=O)[C@H](CCCCN)NC(=O)[C@H](CCCCN)NC(=O)CNC(=O)CNC(=O)[C@H](CCCNC(=N)N)NC(=O)[C@@H](N)CCCCN)C(=O)N[C@@H](CC(C)C)C(=O)N[C@@H](CCCCN)C(=O)N[C@@H](Cc1c[nH]cn1)C(=O)N[C@@H](Cc1ccccc1)C(=O)N[C@@H](CC(N)=O)C(=O)N[C@H](C(=O)N[C@@H](CC(=O)O)C(=O)N[C@@H](Cc1ccccc1)C(=O)N[C@@H](CS)C(=O)NCC(=O)N[C@@H](CC(N)=O)C(=O)N[C@@H](CS)C(=O)O)[C@@H](C)CC [MAP11] (H-KRGGKKKLMKPLGQGLGKILKHFNIDFCGNC-OH; N-terminus and C-terminus assumed)
Number of hours to cause a significant reduction in log CFU/mL of S. aureus ATCC (p < 0.05) ([5]; 0.5x MIC): 4 hours
Number of hours to cause a significant reduction in log CFU/mL of S. aureus ATCC (p < 0.05) ([5]; 2x MIC): 2 hours
Number of hours to cause a significant reduction in log CFU/mL of S. aureus ATCC (p < 0.05) ([5]; MIC): 4 hours
MBC E. coli ([7]; clinical isolate - animal): 9.3 µM
MBC E. coli [7, 17]: 32 µg/mL
MBC S. aureus ([8]; clinical isolate - animal): 9.3 µM
MBC S. aureus [8, 17]: 32 µg/mL
MBC S. aureus ATCC ([9]; value in brackets, 99.9% reduction in CFU/mL relative to starting inoculum): 32 µg/mL (≈ 9.33 µM)
MBC E. coli ATCC ([10]; ATCC 25922): 18.6 µM
MBC E. coli ATCC ([10]; value in brackets, 99.9% reduction in CFU/mL): 64 µg/mL
MBC MRSA [12]: 9.3 µM (≈ 31.9 µg/mL)
MBC PRSA [13]: 4.6 µM (≈ 15.8 µg/mL)
